System: HCV replicon in HUH-7 cells
Assay: HCV replicon FRET assay (EC50 confirmed in replicon luciferase reporter assay)
Type: cell-based
Settings: Hepatitis C virus, Huh-7, 96 h
Excerpt: An HCV replicon whole cell system was established as described by Lohmann V, Korner F, Koch J, Herian U, Theilmann L, Bartenschlager R., Science 285(5424): 110-3 (1999). This system enabled us to evaluate the effects of our HCV Protease compounds on HCV RNA replication. Briefly, using the HCV strain 1b sequence described in the Lohmann paper (Assession number: AJ238799), an HCV cDNA was synthesized by Operon Technologies, Inc. (Alameda, Calif.), and the full-length replicon was then assembled in plasmid pGem9zf(+) (Promega, Madison, Wis.) using standard molecular biology techniques. […]
The HCV replicon FRET assay was developed to monitor the inhibitory effects of compounds described in the disclosure on HCV viral replication. […] After 4 days, cells were first assessed for cytotoxicity using alamar Blue (Trek Diagnotstic Systems) for a CC50 reading. The toxicity of compound (CC50) was determined by adding 1/10th volume of alamar Blue to the media incubating the cells. After 4 h, the fluorescence signal from each well was read, with an excitation wavelength at 530 nm and an emission wavelength of 580 nm, using the Cytofluor Series 4000 (Perspective Biosystems). […]

## CO[C@@]1(c2ccc(-c3ccccc3)cc2)C[C@H]2C(=O)N[C@]3(C(=O)NS(=O)(=O)C4CC4)C[C@H]3/C=C\CCCCC[C@H](NC(=O)OC(C)(C)C)C(=O)N2C1 [Compound 1, tert-butyl (2R,6S,13aS,14aR,16aS,Z)-2-(biphenyl-4-yl)-14a-(cyclopropylsulfonylcarbamoyl)-2-methoxy-5,16-dioxo-1,2,3,5,6,7,10,11,13a,14,14a,15,16,16a-hexadecahydrocyclopropa[e]pyrrolo[1,2-a][1,4]diazacyclopentadecin-6-ylcarbamate]
  EC50: 5 nM

Reference: patent US7763584B2, “Hepatitis C virus inhibitors” (priority 2006, dated 2010)
